Measured values published in ChEMBL document CHEMBL1909046, “DrugMatrix in vitro pharmacology data”.

Assays:
[1] = target: Mitogen-activated protein kinase 3 (Homo sapiens, UniProt P27361); assay: DRUGMATRIX: Protein Serine/Threonine Kinase, ERK1 enzyme inhibition (substrate: Myelin Basic Protein); design: species or system Escherichia coli; conditions: Not Active = under 50% inhibition at 10 µM
[2] = DRUGMATRIX: GABAA, Muscimol, Central radioligand binding (ligand: [3H] Muscimol); assay type: cell membranes, Rattus norvegicus, Wistar, Brain, Membrane; conditions: Not Active = under 50% inhibition at 10 µM
[3] = target: T1, Neuropeptide Y receptor type 1 (Homo sapiens, UniProt P25929); assay type: cell membranes, Membrane; conditions: sk-n-mc; note: in other assays of this panel Not Active means under 50% inhibition at 10 µM
T1 sequence (P25929 whole entry): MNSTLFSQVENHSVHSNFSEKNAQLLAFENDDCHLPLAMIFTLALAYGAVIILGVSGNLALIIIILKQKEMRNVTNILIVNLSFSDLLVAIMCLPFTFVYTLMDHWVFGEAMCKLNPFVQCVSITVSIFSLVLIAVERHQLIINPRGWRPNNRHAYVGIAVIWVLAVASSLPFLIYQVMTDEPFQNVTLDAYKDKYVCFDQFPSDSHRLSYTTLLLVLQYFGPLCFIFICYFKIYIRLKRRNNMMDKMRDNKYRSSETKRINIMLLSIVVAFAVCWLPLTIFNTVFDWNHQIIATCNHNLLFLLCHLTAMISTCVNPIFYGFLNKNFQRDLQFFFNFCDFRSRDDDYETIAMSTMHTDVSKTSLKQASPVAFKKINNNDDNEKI

[4] = target: T2, Cytochrome P450 2A6 (Homo sapiens, UniProt P11509); conditions: bti-tn-5b1-4; note: in other assays of this panel Not Active means under 50% inhibition at 10 µM
T2 sequence (P11509 whole entry): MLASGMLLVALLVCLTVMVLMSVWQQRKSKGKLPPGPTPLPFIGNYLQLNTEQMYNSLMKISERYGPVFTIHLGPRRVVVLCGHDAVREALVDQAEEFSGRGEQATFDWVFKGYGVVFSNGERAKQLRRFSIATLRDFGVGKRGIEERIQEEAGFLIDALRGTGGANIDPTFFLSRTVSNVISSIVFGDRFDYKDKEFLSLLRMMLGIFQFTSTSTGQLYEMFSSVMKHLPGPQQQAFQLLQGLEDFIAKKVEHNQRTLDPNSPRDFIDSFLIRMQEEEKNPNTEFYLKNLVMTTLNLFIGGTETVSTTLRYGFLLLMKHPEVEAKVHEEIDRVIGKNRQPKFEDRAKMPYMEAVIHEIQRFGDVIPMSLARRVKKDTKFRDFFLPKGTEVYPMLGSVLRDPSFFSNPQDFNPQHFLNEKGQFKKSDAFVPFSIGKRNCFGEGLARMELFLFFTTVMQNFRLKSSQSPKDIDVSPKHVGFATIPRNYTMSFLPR

[5] = target: T3, Angiotensin-converting enzyme (Oryctolagus cuniculus, UniProt P12822); assay type: tissue-based, Lung;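 note: enzymatic inhibition of angiotensin-converting enzyme measured with FAPGG as the substrate; in other assays of this panel Not Active means under 50% inhibition at 10 µM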
T3 sequence (P12822 whole entry): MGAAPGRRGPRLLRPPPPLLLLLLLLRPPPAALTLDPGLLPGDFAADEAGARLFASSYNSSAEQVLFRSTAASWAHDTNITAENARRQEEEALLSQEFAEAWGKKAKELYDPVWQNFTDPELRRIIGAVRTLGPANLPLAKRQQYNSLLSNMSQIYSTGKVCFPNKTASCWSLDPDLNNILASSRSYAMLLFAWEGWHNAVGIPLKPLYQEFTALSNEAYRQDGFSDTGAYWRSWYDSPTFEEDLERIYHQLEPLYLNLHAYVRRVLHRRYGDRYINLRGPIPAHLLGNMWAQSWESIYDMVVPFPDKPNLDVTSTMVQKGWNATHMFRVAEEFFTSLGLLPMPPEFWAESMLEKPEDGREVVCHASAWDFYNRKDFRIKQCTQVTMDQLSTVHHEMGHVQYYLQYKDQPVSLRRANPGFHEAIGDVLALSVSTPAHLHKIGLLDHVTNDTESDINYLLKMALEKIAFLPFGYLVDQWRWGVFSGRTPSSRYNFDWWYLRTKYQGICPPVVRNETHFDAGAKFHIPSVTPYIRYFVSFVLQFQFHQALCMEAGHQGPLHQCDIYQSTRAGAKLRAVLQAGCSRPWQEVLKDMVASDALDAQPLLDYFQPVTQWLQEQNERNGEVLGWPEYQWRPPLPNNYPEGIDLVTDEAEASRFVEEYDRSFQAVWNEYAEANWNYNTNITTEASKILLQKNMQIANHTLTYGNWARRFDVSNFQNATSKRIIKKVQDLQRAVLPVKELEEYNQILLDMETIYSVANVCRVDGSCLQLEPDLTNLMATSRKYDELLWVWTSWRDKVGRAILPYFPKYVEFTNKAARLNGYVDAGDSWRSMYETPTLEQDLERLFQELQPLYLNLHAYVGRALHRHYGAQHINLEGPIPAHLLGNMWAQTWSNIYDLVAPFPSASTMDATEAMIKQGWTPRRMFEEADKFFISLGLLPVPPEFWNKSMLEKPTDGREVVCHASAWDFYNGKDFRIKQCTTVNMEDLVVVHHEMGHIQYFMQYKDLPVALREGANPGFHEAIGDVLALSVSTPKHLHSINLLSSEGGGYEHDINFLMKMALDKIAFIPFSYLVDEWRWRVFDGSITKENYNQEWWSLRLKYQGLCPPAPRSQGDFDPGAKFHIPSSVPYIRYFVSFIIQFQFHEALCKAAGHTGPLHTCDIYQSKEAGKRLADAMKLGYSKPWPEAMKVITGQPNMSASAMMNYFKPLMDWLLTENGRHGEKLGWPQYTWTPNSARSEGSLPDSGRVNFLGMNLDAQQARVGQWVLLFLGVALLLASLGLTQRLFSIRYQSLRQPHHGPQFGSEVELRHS

[6] = target: 5-hydroxytryptamine receptor 1B (Rattus norvegicus, UniProt P28564); assay type: cell membranes, Wistar, Cerebral cortex, Membrane; note: in other assays of this panel Not Active means under 50% inhibition at 10 µM
[7] = target: Insulin receptor (Rattus norvegicus, UniProt P15127); assay type: cell membranes, Wistar, Liver, Membrane; note: in other assays of this panel Not Active means under 50% inhibition at 10 µM
[8] = target: T4, 5-hydroxytryptamine receptor 1A (Rattus norvegicus, UniProt P19327); assay type: cell membranes, CHO-K1, Membrane; note: in other assays of this panel Not Active means under 50% inhibition at 10 µM
T4 sequence (P19327 whole entry): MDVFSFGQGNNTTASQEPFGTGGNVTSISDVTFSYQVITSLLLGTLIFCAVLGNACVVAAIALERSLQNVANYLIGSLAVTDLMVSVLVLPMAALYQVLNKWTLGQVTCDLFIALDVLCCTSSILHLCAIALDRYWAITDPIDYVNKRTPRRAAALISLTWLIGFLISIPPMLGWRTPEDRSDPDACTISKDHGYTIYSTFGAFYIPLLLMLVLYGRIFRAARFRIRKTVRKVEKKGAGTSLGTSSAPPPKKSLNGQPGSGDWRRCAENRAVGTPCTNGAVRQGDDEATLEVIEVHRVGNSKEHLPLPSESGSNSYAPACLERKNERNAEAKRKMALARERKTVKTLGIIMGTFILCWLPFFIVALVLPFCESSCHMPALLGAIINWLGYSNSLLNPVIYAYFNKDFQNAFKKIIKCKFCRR

Sequence of 5-hydroxytryptamine receptor 1B (P28564 whole entry): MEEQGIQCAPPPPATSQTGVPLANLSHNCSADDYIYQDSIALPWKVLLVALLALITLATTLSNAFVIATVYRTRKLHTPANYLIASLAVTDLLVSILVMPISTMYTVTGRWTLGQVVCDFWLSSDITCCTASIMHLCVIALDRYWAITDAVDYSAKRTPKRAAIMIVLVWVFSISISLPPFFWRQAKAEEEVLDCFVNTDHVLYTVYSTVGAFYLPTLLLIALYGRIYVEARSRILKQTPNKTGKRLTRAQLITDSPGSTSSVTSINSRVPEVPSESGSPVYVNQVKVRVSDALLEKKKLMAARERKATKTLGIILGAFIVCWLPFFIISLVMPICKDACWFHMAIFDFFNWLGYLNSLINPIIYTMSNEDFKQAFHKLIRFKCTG
Sequence of Mitogen-activated protein kinase 3 (P27361 whole entry): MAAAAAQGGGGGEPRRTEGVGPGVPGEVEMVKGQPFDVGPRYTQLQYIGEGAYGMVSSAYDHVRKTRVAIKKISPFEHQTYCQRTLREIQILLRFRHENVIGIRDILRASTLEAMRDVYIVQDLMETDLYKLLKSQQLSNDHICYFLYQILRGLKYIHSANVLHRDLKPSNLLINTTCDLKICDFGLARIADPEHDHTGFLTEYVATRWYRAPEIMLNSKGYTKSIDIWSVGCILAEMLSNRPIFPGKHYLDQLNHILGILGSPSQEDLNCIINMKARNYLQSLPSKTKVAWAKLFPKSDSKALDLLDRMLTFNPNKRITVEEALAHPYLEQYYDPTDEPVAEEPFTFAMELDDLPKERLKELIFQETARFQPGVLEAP
Sequence of Insulin receptor (P15127 27-759 limits assumed): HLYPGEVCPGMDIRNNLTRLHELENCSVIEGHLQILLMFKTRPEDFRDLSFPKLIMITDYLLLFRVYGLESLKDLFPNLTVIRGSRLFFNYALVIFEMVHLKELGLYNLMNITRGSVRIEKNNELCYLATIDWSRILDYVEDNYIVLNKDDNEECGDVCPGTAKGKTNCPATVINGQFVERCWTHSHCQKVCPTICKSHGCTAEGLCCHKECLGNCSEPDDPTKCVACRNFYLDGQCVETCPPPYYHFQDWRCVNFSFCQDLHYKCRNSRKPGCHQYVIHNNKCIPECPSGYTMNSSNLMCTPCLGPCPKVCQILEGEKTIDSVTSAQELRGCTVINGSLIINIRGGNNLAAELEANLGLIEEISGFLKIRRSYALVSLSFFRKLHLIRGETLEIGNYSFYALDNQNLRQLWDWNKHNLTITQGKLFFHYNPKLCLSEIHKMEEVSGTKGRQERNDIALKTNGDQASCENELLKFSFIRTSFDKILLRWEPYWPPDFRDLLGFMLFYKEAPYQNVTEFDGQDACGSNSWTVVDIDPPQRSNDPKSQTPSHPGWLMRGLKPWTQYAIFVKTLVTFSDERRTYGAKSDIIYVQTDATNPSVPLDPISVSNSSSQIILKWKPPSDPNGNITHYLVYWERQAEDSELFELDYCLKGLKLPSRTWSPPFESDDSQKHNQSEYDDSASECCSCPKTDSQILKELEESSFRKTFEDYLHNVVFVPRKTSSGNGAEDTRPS
Sequence of Insulin receptor (P15127 764-1383 limits assumed): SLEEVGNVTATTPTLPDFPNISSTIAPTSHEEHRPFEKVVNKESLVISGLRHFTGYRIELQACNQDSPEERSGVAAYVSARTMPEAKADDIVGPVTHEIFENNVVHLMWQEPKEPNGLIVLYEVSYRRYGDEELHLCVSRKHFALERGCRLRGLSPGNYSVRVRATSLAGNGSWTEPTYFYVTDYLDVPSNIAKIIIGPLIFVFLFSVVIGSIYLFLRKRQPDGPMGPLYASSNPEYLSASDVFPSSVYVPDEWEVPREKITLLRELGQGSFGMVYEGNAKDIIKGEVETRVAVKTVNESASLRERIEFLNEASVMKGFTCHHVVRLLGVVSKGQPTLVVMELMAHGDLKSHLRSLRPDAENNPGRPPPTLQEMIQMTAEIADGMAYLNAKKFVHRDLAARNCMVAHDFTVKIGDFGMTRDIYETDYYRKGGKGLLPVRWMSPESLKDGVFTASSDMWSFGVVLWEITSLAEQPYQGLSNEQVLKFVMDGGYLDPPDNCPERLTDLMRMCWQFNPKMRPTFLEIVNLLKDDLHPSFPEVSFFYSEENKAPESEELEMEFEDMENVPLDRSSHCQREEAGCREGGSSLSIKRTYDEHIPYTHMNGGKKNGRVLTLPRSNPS

| SMILES | IC50 [1] | IC50 [2] | Ki [2] | IC50 [3] | IC50 [4] | Ki [4] | IC50 [5] | IC50 [6] | IC50 [7] | IC50 ([8]; cho-k1) | IC50 ([6]; read-out: IC50) [µM] | Ki ([6]; read-out: Ki) [µM] | IC50 ([8]; read-out: IC50) [µM] | Ki ([8]; read-out: Ki) [µM] |
| --- | --- | --- | --- | --- | --- | --- | --- | --- | --- | --- | --- | --- | --- | --- |
| CNCCc1ccccn1 [BETAHISTINE] | Not Active | Not Active | Not Active | Not Active | Not Active | Not Active | Not Active | Not Active | Not Active | Not Active |  |  |  |  |
| CC(C)C(Br)C(=O)NC(N)=O (configuration not stated) [BROMISOVALUM] | Not Active | Not Active | Not Active | Not Active | Not Active | Not Active | Not Active | Not Active | Not Active | Not Active |  |  |  |  |
| CCCC1O[C@@H]2C[C@H]3[C@@H]4CCC5=CC(=O)C=C[C@]5(C)[C@H]4[C@@H](O)C[C@]3(C)[C@]2(C(=O)CO)O1 (some centres not stated) [BUDESONIDE] | Not Active | Not Active | Not Active | Not Active | Not Active | Not Active | Not Active | Not Active | Not Active | Not Active |  |  |  |  |
| CC(NC(C)(C)C)C(=O)c1cccc(Cl)c1 (configuration not stated) [BUPROPION] | Not Active | Not Active | Not Active | Not Active | Not Active | Not Active | Not Active | Not Active | Not Active | Not Active |  |  |  |  |
| CN(Cc1ccc(C(C)(C)C)cc1)Cc1cccc2ccccc12 [BUTENAFINE] | Not Active | Not Active | Not Active | Not Active | Not Active | Not Active | Not Active | Not Active | Not Active | Not Active |  |  |  |  |
| Cc1ccc(-c2cc(C(F)(F)F)nn2-c2ccc(S(N)(=O)=O)cc2)cc1 [CELECOXIB] | Not Active | Not Active | Not Active | Not Active | Not Active | Not Active | Not Active | Not Active | Not Active | Not Active |  |  |  |  |
| O=C(O)CCCc1ccc(N(CCCl)CCCl)cc1 [CHLORAMBUCIL] | Not Active | Not Active | Not Active | Not Active | Not Active | Not Active | Not Active | Not Active | Not Active | Not Active |  |  |  |  |
| CN(C)CCCN1c2ccccc2Sc2ccc(Cl)cc21 [CHLORPROMAZINE] | Not Active | Not Active | Not Active | Not Active | Not Active | Not Active | Not Active |  | Not Active |  | 4.04 | 1.84 | 4.68 | 2.68 |
